# Laboratory results published in ChEMBL document CHEMBL1201862, “PubChem BioAssay data set” (2004).
# Calls of active or inactive are those of the source.
# Assays:
# [1] = biological target: Peroxisome proliferator-activated receptor gamma/Nuclear receptor corepressor 2 (Homo sapiens, UniProt P37231+Q9Y618); type: functional
# [2] = biological target: NS3 (Hepatitis C virus, UniProt A3EZJ3); assay: PubChem AID 2173; parameters: species or system Hepacivirus hominis
# [3] = biological target: Photoreceptor-specific nuclear receptor (Homo sapiens, UniProt Q9Y5X4); type: functional;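 also: potency for compounds that break the NR2E3 corepressor complex and count as activators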
# Photoreceptor-specific nuclear receptor, sequence (Q9Y5X4 whole entry): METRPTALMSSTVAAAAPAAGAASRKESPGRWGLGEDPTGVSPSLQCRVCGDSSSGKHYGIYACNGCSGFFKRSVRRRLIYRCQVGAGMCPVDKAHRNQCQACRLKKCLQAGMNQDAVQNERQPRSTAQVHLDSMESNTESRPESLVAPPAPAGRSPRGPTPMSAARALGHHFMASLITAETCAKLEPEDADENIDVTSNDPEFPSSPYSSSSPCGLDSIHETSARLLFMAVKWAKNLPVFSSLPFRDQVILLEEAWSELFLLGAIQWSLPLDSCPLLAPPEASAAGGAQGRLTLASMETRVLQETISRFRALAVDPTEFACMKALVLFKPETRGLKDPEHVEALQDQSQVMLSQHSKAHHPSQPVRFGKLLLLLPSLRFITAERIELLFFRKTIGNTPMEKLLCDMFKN
# [4] = tested on: HeLa; assay: Cytotoxicity counterscreen assay for transcriptional activators of heat shock protein 70 (Hsp70). [Related pubchem assays: 1203, 1252 ]; type: functional; conditions: Homo sapiens;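 also: cells exposed to compound for 16 hours before readout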
# [5] = biological target: T1, Aminopeptidase N (Plasmodium falciparum FcB1/Columbia, UniProt O96935); assay: P. falciparum M1AAP inhibitors, biochemical, fluorogenic H-Leu-NHMec substrate, 1536-well (AID 1445); parameters: species or system Plasmodium falciparum 3D7, 3D7
# T1 sequence (O96935 whole entry): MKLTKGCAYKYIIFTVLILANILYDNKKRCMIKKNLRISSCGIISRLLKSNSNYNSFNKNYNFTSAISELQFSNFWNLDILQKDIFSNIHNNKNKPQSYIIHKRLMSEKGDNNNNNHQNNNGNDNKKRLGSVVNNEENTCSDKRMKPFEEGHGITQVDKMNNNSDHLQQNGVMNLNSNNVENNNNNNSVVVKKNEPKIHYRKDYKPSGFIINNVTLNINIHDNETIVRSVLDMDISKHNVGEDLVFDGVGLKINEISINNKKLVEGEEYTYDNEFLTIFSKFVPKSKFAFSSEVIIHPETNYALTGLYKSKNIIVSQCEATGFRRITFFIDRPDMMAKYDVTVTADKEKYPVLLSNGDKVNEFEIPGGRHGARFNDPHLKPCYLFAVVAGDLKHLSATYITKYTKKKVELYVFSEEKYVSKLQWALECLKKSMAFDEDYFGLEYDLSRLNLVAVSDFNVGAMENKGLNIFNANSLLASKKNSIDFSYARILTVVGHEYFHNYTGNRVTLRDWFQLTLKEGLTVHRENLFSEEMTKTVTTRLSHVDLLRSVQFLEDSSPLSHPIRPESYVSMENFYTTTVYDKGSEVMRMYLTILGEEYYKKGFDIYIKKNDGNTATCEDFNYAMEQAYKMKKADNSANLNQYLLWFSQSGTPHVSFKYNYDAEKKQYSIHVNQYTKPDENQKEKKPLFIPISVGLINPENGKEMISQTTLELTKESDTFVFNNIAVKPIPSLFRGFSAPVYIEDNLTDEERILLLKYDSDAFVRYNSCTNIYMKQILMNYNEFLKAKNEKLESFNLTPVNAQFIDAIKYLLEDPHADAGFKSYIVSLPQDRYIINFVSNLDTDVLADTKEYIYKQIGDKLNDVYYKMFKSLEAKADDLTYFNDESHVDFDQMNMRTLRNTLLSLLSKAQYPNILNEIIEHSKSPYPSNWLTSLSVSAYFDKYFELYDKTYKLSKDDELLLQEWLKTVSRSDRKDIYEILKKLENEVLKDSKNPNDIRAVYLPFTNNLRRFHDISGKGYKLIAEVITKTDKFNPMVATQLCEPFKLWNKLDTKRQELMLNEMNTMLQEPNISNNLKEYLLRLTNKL
# [6] = HIV-1 Env-mediated cell fusion inhibitors, dose response, CCR5-tropic Env (AID 2279); type: functional
# [7] = biological target: T2, Calpain-2 catalytic subunit (Sus scrofa, UniProt P43367); assay: pig calpain II inhibitor potency, dose response, biochemical, fluorogenic peptide substrate (AID 1420); type: functional
# T2 sequence (P43367 whole entry): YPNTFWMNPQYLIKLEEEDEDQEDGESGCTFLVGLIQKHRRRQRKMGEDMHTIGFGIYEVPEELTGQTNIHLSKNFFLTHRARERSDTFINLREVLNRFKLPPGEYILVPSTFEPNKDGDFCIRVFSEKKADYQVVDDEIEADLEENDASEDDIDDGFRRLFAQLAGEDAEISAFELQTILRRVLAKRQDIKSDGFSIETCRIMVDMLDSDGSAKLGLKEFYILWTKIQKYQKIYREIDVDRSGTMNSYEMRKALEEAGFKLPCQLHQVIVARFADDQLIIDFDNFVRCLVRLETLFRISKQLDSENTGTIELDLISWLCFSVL
# [8] = biological target: Induced myeloid leukemia cell differentiation protein Mcl-1 (Homo sapiens, UniProt Q07820); type: functional
# Induced myeloid leukemia cell differentiation protein Mcl-1, sequence (Q07820 whole entry): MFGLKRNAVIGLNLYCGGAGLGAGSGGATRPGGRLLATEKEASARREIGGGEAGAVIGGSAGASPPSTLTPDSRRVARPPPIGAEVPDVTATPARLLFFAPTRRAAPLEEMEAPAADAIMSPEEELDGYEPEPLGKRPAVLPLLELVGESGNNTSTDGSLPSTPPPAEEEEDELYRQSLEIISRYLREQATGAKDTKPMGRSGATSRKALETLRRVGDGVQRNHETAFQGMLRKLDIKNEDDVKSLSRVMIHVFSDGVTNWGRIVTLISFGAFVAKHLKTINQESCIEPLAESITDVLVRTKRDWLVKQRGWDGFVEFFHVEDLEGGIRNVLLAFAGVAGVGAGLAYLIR
# [9] = biological target: Peroxisome proliferator-activated receptor gamma/Nuclear receptor coactivator 3 (Homo sapiens, UniProt P37231); type: functional;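 also: agonist potency for raising coactivator recruitment to the receptor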
# [10] = biological target: Peroxisome proliferator-activated receptor gamma/Nuclear receptor coactivator 2 (Homo sapiens, UniProt P37231); type: functional;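 also: agonist potency for raising coactivator recruitment to the receptor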
# Peroxisome proliferator-activated receptor gamma/Nuclear receptor coactivator 2, sequence (P37231 whole entry): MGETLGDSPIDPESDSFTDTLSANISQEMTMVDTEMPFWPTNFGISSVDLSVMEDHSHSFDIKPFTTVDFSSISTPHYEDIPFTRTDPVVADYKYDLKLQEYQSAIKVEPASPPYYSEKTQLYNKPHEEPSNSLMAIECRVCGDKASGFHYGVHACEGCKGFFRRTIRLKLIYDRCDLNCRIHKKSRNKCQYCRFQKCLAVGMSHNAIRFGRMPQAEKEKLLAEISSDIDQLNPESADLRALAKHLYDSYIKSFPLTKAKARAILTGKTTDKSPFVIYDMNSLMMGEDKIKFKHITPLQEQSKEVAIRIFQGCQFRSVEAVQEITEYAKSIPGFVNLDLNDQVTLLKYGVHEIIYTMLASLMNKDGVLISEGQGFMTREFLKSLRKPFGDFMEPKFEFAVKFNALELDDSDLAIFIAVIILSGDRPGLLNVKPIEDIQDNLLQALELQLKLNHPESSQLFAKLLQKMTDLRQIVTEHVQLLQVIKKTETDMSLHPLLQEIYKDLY
# Peroxisome proliferator-activated receptor gamma/Nuclear receptor coactivator 2, sequence (Q15596 whole entry, further chain): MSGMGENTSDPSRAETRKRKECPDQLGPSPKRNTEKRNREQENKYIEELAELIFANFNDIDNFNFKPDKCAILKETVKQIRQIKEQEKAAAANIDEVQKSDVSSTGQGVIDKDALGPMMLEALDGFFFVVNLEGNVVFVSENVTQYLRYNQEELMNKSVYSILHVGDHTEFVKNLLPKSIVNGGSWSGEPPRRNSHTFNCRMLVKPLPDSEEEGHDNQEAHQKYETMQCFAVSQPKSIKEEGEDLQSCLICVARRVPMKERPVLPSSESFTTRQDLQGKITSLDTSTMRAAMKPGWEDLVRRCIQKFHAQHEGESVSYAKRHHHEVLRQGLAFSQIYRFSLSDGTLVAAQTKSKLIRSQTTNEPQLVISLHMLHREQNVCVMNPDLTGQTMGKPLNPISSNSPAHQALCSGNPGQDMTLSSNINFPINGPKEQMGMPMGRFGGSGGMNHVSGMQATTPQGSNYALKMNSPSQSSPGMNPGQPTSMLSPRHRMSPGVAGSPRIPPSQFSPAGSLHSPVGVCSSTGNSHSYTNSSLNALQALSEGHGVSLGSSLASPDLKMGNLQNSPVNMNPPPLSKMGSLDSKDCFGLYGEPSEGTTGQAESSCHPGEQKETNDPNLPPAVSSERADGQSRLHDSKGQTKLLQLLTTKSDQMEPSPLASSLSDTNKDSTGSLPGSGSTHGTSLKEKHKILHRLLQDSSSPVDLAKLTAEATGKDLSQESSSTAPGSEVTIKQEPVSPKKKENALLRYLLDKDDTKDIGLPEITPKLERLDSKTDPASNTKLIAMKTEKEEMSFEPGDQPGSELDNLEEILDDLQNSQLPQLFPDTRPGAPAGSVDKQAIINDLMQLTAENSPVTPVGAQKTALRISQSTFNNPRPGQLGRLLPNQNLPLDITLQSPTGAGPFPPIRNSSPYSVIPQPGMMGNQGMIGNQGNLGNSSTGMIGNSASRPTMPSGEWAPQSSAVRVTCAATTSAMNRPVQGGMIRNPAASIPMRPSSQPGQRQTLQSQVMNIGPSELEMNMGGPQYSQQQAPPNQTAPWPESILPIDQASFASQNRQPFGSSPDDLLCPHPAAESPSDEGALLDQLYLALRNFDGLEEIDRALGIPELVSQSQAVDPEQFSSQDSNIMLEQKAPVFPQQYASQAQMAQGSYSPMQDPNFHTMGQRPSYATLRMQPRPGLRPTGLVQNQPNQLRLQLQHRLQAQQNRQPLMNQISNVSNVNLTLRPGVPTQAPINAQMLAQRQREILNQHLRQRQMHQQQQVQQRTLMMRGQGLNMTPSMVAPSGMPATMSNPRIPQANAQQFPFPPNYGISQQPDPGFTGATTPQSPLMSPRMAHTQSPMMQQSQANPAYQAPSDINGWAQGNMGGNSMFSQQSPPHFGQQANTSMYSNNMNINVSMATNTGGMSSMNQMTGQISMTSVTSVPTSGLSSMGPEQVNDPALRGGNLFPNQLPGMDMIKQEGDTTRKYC
# [11] = biological target: Peroxisome proliferator-activated receptor gamma/Nuclear receptor coactivator 1 (Homo sapiens, UniProt P37231); type: functional;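 also: agonist potency as compounds enhance coactivator SRC-1 recruitment to PPARgamma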
# [12] = Luminescence Cell-Based Dose Confirmation HTS to Identify Activators of 5'UTR Stem-Loop Driven Alpha-Synuclein mRNA Translation in H4 Neuroglioblastoma Cells. [Related pubchem assays: 1829 (Project Summary), 1814 (Primary HTS)]; type: functional
# [13] = NIH-3T3 fibroblast cytotoxicity, dose response, cytotoxicity control, cell-based, fluorescence, Alamar Blue, secondary assay (AID 2327); type: functional;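 also: NIH-3T3 mouse fibroblasts cultured with fluconazole at 8 µg/mL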
# [14] = M. tuberculosis H37Rv growth inhibitors, H37Rv strain (AID 1626); type: functional
# [15] = Luminescence Cell-Based Dose Response HTS to Identify Activators of Luciferase Translation or Activity in H4 […] Cells. [Related pubchem assays: 1829 (Project Summary), 1814 (Primary HTS)]; type: functional
# [16] = biological target: T3, Heat shock factor protein 1 (Mus musculus, UniProt P38532); assay: inhibition of MG132-induced HSE-luciferase signal, confirmation, cell-based, NIH3T3, luminescence, dose retest (AID 2382); type: functional;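 also: NIH3T3 fibroblasts with HSF1-driven luciferase reporter stressed by proteasome inhibitor MG132; luminescence from HSF1-driven luciferase expression after 8 hours of MG132 stress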
# T3 sequence (P38532 whole entry): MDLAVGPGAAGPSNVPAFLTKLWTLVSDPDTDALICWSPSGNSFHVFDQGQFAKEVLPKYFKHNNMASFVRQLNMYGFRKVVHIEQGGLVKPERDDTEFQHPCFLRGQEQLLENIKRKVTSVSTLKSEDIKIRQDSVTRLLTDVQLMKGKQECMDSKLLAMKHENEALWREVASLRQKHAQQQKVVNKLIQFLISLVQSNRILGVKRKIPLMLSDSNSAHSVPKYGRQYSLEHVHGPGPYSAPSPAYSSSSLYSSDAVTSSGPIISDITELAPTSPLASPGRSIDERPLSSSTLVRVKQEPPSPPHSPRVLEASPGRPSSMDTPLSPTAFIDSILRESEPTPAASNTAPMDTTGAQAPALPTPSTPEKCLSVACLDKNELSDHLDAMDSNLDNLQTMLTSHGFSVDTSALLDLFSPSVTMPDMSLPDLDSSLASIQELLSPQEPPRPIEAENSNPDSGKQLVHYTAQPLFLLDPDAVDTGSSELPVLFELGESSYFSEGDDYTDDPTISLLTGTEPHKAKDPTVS
# [17] = C. albicans growth with fluconazole, confirmation, fluorescence, retest (AID 2467); type: functional, cell-based
# [18] = biological target: T4, Insulin-degrading enzyme (Homo sapiens, UniProt P14735); assay: Dose Response: Fluorescence polarization-based cell-based high throughput dose response assay for inhibitors of insulin-degrading enzyme (IDE). [Related pubchem assays: 434962 (Primary screen (IDE inhibitors in singlicate)), 449730 (Counterscreen (Cytotoxicity in triplicate)), 435028 (Confirmation (IDE inhibitors in triplicate)), 434984 (Summary …; type: functional
# T4 sequence (P14735 whole entry): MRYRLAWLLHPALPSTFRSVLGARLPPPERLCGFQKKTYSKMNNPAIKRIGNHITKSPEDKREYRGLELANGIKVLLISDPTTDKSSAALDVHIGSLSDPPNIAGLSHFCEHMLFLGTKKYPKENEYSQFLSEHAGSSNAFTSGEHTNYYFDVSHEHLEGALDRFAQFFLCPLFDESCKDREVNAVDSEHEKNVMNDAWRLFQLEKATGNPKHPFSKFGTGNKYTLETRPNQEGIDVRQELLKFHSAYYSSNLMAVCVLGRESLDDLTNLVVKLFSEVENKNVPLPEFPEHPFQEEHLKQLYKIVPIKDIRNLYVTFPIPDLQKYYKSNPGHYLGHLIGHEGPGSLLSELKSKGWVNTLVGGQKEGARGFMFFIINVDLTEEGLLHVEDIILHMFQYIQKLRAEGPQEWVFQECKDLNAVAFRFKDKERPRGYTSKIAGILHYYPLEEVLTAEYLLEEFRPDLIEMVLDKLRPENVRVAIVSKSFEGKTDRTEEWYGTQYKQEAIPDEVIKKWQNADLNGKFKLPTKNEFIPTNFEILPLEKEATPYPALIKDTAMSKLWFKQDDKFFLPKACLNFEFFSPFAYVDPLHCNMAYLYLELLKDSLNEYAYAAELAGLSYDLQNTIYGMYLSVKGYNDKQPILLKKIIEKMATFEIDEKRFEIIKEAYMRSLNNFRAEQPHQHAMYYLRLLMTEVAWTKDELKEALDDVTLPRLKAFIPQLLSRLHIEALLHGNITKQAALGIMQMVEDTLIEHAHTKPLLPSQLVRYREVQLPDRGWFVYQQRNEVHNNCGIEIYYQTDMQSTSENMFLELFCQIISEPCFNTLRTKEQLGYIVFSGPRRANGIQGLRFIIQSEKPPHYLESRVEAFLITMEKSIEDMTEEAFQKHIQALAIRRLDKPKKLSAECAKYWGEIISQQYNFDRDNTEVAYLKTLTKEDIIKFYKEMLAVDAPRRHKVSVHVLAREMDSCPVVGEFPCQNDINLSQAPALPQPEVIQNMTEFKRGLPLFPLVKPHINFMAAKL
# [19] = Counterscreen for IDE inhibitors: Luminescence-based cell-based high throughput dose response assay to identify compounds that are cytotoxic to HEK cells. [Related pubchem assays: 434962 (Primary screen (IDE inhibitors in singlicate)), 449730 (Counterscreen (Cytotoxicity in triplicate)), 435028 (Confirmation (IDE inhibitors in triplicate)) …; type: functional; conditions: HEK293
# [20] = non-specific cell cytotoxicity, dose response, cytotoxicity control for PAX8 inhibitor project, plate reader, dry powder samples (AID 743021); type: functional, cell-based
# [21] = Luminescence Cell-Based Dose Response HTS to Identify Inhibitors of 5'UTR Stem-Loop Driven Prion Protein mRNA Translation in H4 Neuroglioblastoma Cells. [Related pubchem assays: 1827 (Project Summary), 1813 (Primary HTS)]; type: functional
# [22] = inhibitors of firefly luciferase expression or activity, dose response, H4 neuroglioma cells, luminescence (AID 1990); type: functional, cell-based
# [23] = Luminescence-based counterscreen assay for KLF5 inhibitors: dose response cell-based high throughput screening assay to identify cytotoxic compounds using the IEC-6 intestinal epithelial cell line. [Related pubchem assays: 1700 (Primary screen.), 1834 (Confirmation screen.), 1858 (Summary AID.), 1905 (Counterscreen.)]; type: functional
# [24] = inhibitors of SNCA 5'UTR-driven reporter translation, confirmation, H4 neuroglioma cells, luminescence (AID 1988); type: functional, cell-based
# [25] = biological target: Paired box protein Pax-8 (Homo sapiens, UniProt Q06710); assay: inhibitors of PAX8-driven TPO luciferase reporter, dose response, RMG-I cells, cherry-pick (AID 687027); type: functional, cell-based;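 also: luciferase reporter driven by Pax8 target thyroperoxidase promoter measured by SteadyGlo luminescence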
# Paired box protein Pax-8, sequence (Q06710 whole entry): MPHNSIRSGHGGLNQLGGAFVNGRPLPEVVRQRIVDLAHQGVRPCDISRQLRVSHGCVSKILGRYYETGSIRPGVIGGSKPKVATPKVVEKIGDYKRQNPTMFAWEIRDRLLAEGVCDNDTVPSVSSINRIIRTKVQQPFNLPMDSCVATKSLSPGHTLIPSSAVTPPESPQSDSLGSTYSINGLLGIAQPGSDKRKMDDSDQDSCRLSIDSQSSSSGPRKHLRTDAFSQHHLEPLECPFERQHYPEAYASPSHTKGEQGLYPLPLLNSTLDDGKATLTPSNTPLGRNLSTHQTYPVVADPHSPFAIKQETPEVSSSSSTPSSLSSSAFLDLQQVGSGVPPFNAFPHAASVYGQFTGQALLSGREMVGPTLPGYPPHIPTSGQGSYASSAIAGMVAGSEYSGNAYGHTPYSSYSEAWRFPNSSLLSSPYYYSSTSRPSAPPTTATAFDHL
# [26] = biological target: Estrogen receptor beta (Homo sapiens, UniProt Q92731); assay: ERβ–SRC-3 coactivator interaction inhibitors, confirmation, orthogonal assay, biochemical, ELISA, streptavidin-HRP readout (AID 1060)
# Estrogen receptor beta, sequence (Q92731 whole entry): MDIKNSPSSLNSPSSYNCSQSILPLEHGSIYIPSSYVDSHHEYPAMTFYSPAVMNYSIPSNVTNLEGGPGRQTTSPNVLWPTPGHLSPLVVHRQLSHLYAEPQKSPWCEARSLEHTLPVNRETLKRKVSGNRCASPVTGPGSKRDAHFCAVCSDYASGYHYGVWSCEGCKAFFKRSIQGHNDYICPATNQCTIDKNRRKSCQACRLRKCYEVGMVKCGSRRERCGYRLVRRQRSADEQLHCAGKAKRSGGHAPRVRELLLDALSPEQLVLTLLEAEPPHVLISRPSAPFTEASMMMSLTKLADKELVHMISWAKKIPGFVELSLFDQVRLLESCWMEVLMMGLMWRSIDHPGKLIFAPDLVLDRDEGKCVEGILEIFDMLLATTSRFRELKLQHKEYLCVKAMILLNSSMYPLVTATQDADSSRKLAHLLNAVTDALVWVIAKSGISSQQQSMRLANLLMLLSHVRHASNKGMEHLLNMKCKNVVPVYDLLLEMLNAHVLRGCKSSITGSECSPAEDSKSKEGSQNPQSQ
# [27] = biological target: Large T antigen (Simian virus 40, UniProt P03070); type: functional, Betapolyomavirus macacae;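 also: Confirmatory-stage PubChem screen for compounds that inhibit SV40 T antigen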
# [28] = biological target: Inward rectifier potassium channel 2 (Mus musculus, UniProt P35561); assay: Manual electrophysiological patch clamp assay for SAR compounds that inhibit/block inward-rectifying potassium ion channel Kir2.1. [Related pubchem assays: 1843 (Summary assay for Kir2.1 inhibitor assays.), 1672 (Primary HTS of 305616 compounds where 2592 were identified as active.)]; type: functional
# Inward rectifier potassium channel 2, sequence (P35561 whole entry): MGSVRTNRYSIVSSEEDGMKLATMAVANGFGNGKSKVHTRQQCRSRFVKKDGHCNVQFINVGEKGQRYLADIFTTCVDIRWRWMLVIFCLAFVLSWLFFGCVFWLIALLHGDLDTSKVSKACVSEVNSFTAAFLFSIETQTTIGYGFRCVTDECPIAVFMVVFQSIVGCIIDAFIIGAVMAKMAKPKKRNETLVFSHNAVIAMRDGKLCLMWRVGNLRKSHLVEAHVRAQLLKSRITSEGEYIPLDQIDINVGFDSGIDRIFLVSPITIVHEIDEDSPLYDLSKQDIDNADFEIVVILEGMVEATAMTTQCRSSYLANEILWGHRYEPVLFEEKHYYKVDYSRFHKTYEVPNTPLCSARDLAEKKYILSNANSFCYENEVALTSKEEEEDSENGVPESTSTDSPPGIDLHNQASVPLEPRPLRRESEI
# NS3, sequence (A3EZJ3 whole entry): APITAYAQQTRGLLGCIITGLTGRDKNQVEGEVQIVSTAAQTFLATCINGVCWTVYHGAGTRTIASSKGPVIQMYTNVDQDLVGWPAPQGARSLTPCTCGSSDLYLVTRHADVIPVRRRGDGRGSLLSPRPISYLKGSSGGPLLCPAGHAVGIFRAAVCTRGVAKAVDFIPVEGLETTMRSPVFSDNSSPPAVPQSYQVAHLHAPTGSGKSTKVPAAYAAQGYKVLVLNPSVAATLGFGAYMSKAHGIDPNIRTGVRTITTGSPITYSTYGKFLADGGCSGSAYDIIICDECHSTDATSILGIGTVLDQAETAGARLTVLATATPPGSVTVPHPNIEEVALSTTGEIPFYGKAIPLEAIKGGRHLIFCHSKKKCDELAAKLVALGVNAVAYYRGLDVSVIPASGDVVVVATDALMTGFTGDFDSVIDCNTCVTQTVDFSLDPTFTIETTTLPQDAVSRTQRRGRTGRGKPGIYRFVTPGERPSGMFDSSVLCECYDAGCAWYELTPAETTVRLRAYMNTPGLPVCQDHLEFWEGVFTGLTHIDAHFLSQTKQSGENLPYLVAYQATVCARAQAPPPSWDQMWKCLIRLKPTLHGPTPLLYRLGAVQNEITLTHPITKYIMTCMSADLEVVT
structure (smiles),measurement,setting,value
Cc1ccc(C(=O)C2=C(O)C(=O)N(Cc3cccnc3)C2c2cccc(Oc3ccccc3)c2)o1 (centres undefined),IC50,[1],2.46 µM (active)
same,IC50,[2],6.11 µM (active)
same,IC50,[3],5.73 µM (active)
CN(C)/C=C1/NC(=S)NC1=O,CC50,[4],> 99 µM (not active)
COc1cc(/C=C2\SC(=S)NC2=O)ccc1OS(=O)(=O)c1ccccc1,IC50,[5],38.6 µM (active)
same,IC50,[6],16.5 µM (active)
same,IC50,[7],11.1 µM (not active)
same,IC50,[8],2.79 µM (active)
O=C(Nc1nc(-c2ccccc2)nc2ccccc12)c1ccc(F)cc1,EC50,[9],23 µM (not active)
same,EC50,[10],13.5 µM (not active)
same,EC50,[11],17.2 µM (not active)
COc1cc(/C=N/N=C(/Nc2ccc(C)cc2)c2nc3ccccc3s2)ccc1O,EC50,[12],17.6 µM (active)
same,EC50,[13],> 150 µM (inactive)
same,IC50,[14],> 100 µM (active)
same,EC50,[15],0.154 µM (active)
same,EC50,[16],< 0.16 µM (active)
same,EC50,[17],> 38 µM (not active)
CC(Oc1ccc2c3c(c(=O)oc2c1)CCCC3)C(=O)NCc1ccncc1 (centres undefined),IC50,[18],> 55.9 µM (not active)
same,IC50,[19],36.4 µM (not active)
C/C(=N\NC(=O)c1[nH]nc2c1CCC2)c1cccs1,AC50,[20],8.65 µM (active)
same,EC50,[21],4.49 µM (active)
same,EC50,[22],4.85 µM (active)
same,IC50,[23],10.1 µM (not active)
same,EC50,[24],2.95 µM (active)
same,AC50,[25],5.19 µM (active)
Cc1cc(-c2nc3c4c5c(sc4nc(O)n3n2)CCC5)c(C)o1,IC50,[8],3.05 µM (active)
same,IC50,[26],18.6 µM (not active)
same,IC50,[27],24.8 µM (active)
COc1ccc(CNCc2ccccc2C)cc1,IC50,[28],9.08 µM (active)
